Results published in the NIST ThermoML archive (doi:10.1021/je050159x).

Key:
[1] = for mass density: 101.33 kPa, Liquid
[2] = xn = mol fraction of the nth substance listed

OCc1ccccc1 [benzenemethanol]
[1]
Details	mass density [kg/m3]	surface tension liquid-gas [mN/m]
293.15 K	1045.2	39.05
298.15 K	1041.4	38.58
303.15 K	–	38.12
308.15 K	–	37.63
313.15 K	1029.8	37.16
318.15 K	–	36.63
323.15 K	–	36.18

OCc1ccccc1 [benzenemethanol] + C1CCCCC1
surface tension liquid-gas [mN/m], [2]
Details	x2 = 0	x2 = 0.0068	x2 = 0.0079	x2 = 0.0107	x2 = 0.0202	x2 = 0.0312	x2 = 0.0409	x2 = 0.0655
293.15 K	39.05	37.88	37.73	37.48	37.07	36.53	35.88	34.14
298.15 K	38.58	37.43	37.39	37.15	36.68	36.25	35.66	34.04
303.15 K	38.12	37.06	36.93	36.74	36.32	35.98	35.41	33.94
308.15 K	37.63	36.66	36.54	36.38	35.92	35.73	35.22	33.82
313.15 K	37.16	36.29	36.12	35.99	35.58	35.47	34.96	33.72
318.15 K	36.63	35.84	35.74	35.66	35.24	35.22	34.77	33.61
323.15 K	36.18	35.5	35.32	35.25	34.86	34.96	34.53	33.5

OCc1ccccc1 [benzenemethanol] + CCCCCC
surface tension liquid-gas [mN/m], [2]
Details	x2 = 0	x2 = 0.0068	x2 = 0.0085	x2 = 0.0198	x2 = 0.0215	x2 = 0.0264	x2 = 0.0493	x2 = 0.07
293.15 K	39.05	37.39	37.24	34.45	33.73	33.22	30.61	27.46
298.15 K	38.58	37.1	36.85	34.74	34.04	33.56	31.06	27.96
303.15 K	38.12	36.84	36.41	35.03	34.38	33.86	31.54	28.72
308.15 K	37.63	36.53	36.01	35.35	34.69	34.25	31.92	29.29
313.15 K	37.16	36.3	35.6	35.63	34.99	34.59	32.35	29.9

OCc1ccccc1 [benzenemethanol] + CCCCCCC
surface tension liquid-gas [mN/m], [2]
Details	x2 = 0	x2 = 0.0065	x2 = 0.009	x2 = 0.0112	x2 = 0.0238	x2 = 0.0306	x2 = 0.0445	x2 = 0.067
293.15 K	39.05	37.77	37.07	–	33.61	32.37	28.84	26.09
298.15 K	38.58	37.47	36.87	34.69	33.83	32.58	29.16	26.47
303.15 K	38.12	37.1	36.62	35.02	34.05	32.82	29.43	26.89
308.15 K	37.63	36.78	36.41	35.28	34.27	33.04	29.68	27.27
313.15 K	37.16	36.49	36.16	35.53	34.48	33.24	30	27.7
318.15 K	36.63	36.18	35.95	35.83	34.7	33.46	30.3	28.08
323.15 K	36.18	35.92	35.74	36.11	34.95	33.68	30.61	28.46

OCc1ccccc1 [benzenemethanol] + CCCCCCCCC
surface tension liquid-gas [mN/m], [2]
Details	x2 = 0	x2 = 0.0061	x2 = 0.008	x2 = 0.0116	x2 = 0.0204	x2 = 0.0329	x2 = 0.0408	x2 = 0.0668
293.15 K	39.05	36.83	36.33	35.34	32.52	30.44	28.73	26.66
298.15 K	38.58	36.4	35.95	35.13	32.31	30.23	28.52	26.56
303.15 K	38.12	35.85	35.52	34.59	32.02	30	28.22	26.38
308.15 K	37.63	35.51	35.21	34.33	31.83	29.85	28.03	26.28
313.15 K	37.16	35.03	34.84	33.98	31.61	29.62	27.82	26.19
318.15 K	36.63	34.61	34.5	33.67	31.41	29.44	27.67	26.12
323.15 K	36.18	34.25	34.16	33.32	31.22	29.25	27.46	26.02

C1CCCCC1 [cyclohexane]
[1]
Details	mass density [kg/m3]	surface tension liquid-gas [mN/m]
293.15 K	778.6	25.06
298.15 K	773.9	24.45
303.15 K	–	23.87
308.15 K	–	23.21
313.15 K	759.6	22.71
318.15 K	–	22.05
323.15 K	–	21.45

C1CCCCC1 [cyclohexane] + OCc1ccccc1
[2], x1 = 1
Details	surface tension liquid-gas [mN/m]
293.15 K	25.06
298.15 K	24.45
303.15 K	23.87
308.15 K	23.21
313.15 K	22.71
318.15 K	22.05
323.15 K	21.45

CCCCCCC [heptane]
[1]
Details	mass density [kg/m3]	surface tension liquid-gas [mN/m]
293.15 K	696	20.05
298.15 K	691.9	19.54
303.15 K	–	19.1
308.15 K	–	18.58
313.15 K	680	18.08
318.15 K	–	17.6
323.15 K	–	17.06

CCCCCCC [heptane] + OCc1ccccc1
[2], x1 = 1
Details	surface tension liquid-gas [mN/m]
293.15 K	20.05
298.15 K	19.54
303.15 K	19.1
308.15 K	18.58
313.15 K	18.08
318.15 K	17.6
323.15 K	17.06

CCCCCC [hexane]
[1]
Details	mass density [kg/m3]	surface tension liquid-gas [mN/m]
293.15 K	660.2	18.56
298.15 K	655.4	18.03
303.15 K	–	17.44
308.15 K	–	16.92
313.15 K	641.4	16.38

CCCCCC [hexane] + OCc1ccccc1
[2], x1 = 1
Details	surface tension liquid-gas [mN/m]
293.15 K	18.56
298.15 K	18.03
303.15 K	17.44
308.15 K	16.92
313.15 K	16.38

CCCCCCCCC [nonane]
[1]
Details	mass density [kg/m3]	surface tension liquid-gas [mN/m]
293.15 K	717.7	23.04
298.15 K	713.9	22.49
303.15 K	–	22.04
308.15 K	–	21.49
313.15 K	694.2	20.94
318.15 K	–	20.47
323.15 K	–	19.98

CCCCCCCCC [nonane] + OCc1ccccc1
[2], x1 = 1
Details	surface tension liquid-gas [mN/m]
293.15 K	23.04
298.15 K	22.49
303.15 K	22.04
308.15 K	21.49
313.15 K	20.94
318.15 K	20.47
323.15 K	19.98
